In patent US8741659B2, “Composition for measuring the binding affinity between nucleic acid and test substance, and use thereof” (Osaka University, priority 2007, dated 2014):

Experiments:
[1] = system: RRE; test: Displacement assay using Rev peptide after formation of complex with RRE; format: binding, HIV-1; details: for fluorescence intensity in displacement assay / recovery rate of the fluorescence intensity: compound and RRE each 2 μM
Experimental: In this Example, a binding affinity between a test substance and RRE was evaluated, with use of the compounds, X2S, X2S(3), X2S(4), X2S(5), X2S(2-Me), and 3,6-X2S(2). As the test substance, Rev protein used in Example 5 was used.
Firstly, in the same manner as in Example 3, the above compounds and RREs were respectively dissolved in cacodylate buffer solutions (sodium cacodylate: 10 mM pH 7.0, NaCl: 100 mM) each at 2 μM, so that an X2S-RRE solution, an X2S(3)-RRE solution, an X2S(4)-RRE solution, an X2S(5)-RRE solution, an X2S(2-Me)-RRE solution, and a 3,6-X2S(2)-RRE solution were prepared.
To each of these solutions, Rev protein was added in stages at 0 μM, 0.4 μM, 0.8 μM, 1.2 μM, 1.6 μM, 2.0 μM, 2.4 μM, 2.8 μM, 3.2 μM, 3.6 μM, and 4.0 μM. Further, a fluorescence intensity was measured at each concentration. The fluorescence intensity was measured in the same manner as that described in Example 14.
Each of FIGS. 43 to 48 is a view illustrating a result of the measurement of a binding affinity between Rev protein and RRE. […] In each of FIGS. 43 to 48, the horizontal axis represents the fluorescence wavelength, whereas the vertical axis represents the fluorescence intensity. […] Further, along the direction of the arrow extending from the curved line at the bottom, the curved lines, showing the respective results, are arranged in order of increasing amount of the test substance which was added.
FIG. 49 is a view illustrating a relationship between an amount of Rev added and a fluorescence intensity, in connection with X2S, X2S(3), X2S(4), X2S(5), X2S(2-Me), and 3,6-X2S(2). Further, FIG. 49 is also a view plotting, based on the results illustrated in FIGS. 43 to 48, the fluorescence intensities detected at the fluorescence wavelength at which the respective fluorescence peaks were observed. FIG. 50 is a graph illustrating a relationship between an amount of Rev added and a recovery rate of the fluorescence intensity. In FIG. 49, the vertical axis represents the fluorescence intensity. In FIG. 50, the vertical axis represents the recovery rate of the fluorescence intensity. In each of FIGS. 49 and 50, the horizontal axis represents the amount of Rev added. That is, each of FIGS. 49 and 50 reflects amounts of the above compounds liberated from RREs due to the addition of Rev.
The recovery rate of the fluorescence intensity was obtained by dividing (i) a maximum value of the fluorescence intensity detected at each Rev concentration ranging from 0 μM to 4.0 μM in each of FIGS. 43 to 48 by (ii) a maximum value of the fluorescence intensity of the curved line at the top in each of FIGS. 43 to 48.
In this Example, 1-Pyrenemethanamide, hydrochloride was used to measure a binding affinity between a test substance and RRE. As the test substance, Rev protein used in Example 5 was used.
Firstly, in the same manner as in Example 3, 1-Pyrenemethanamide, hydrochloride and RRE were dissolved in a cacodylate buffer solution (sodium cacodylate: 10 mM, pH 7.0; NaCl: 100 mM) each at 2 μM, so that a 1-Pyrenemethanamide, hydrochloride-RRE solution was prepared.
To the solution, Rev protein was added in steps at 0 μM, 0.4 μM, 0.8 μM, 1.2 μM, 1.6 μM, 2.0 μM, 2.4 μM, 2.8 μM, 3.2 μM, 3.6 μM, and 4.0 μM. Further, the solution at each concentration was irradiated with light having an excitation wavelength of 340 nm, and a fluorescence intensity was measured. A device used for measuring a fluorescence intensity and a variation in a slit width were the same as those in Example 13.
FIG. 55 is a view illustrating a result of the measurement of a binding affinity between Rev protein and RRE. The horizontal axis represents the fluorescence wavelength, whereas the vertical axis represents the fluorescence intensity. […] Further, along a bottom-to-top direction, the curved lines, showing the respective results, are arranged in order of increasing amount of the test substance which was added. […]

[2] = system: RNAs of FIG. 2 (SEQ ID NOs: 1 through 3), with or without bulge structure; test: Evaluation of binding between xanthone fluorescent molecule and RNA (fluorescence before and after mixing RNA); details: 10 μM compound
Experimental: Next, binding between X2S and RNAs was evaluated. The RNAs used in the present example had the structure illustrated in FIG. 2. FIG. 2 is a diagram schematically illustrating the structure of the RNAs used in the present example. The RNAs used in the present example had sequences shown in SEQ ID NOs: 1 through 3.
The symbol N in FIG. 2 represents either a base out of A, U, C, and G, or no base. Thus, in a case where a particular RNA as in FIG. 2 has N representing a base out of A, U, C, and G, the RNA is an RNA formed by hybridization of an RNA having the base sequence shown in SEQ ID NO: 1 with a single strand RNA having the base sequence shown in SEQ ID NO: 2. On the other hand, in a case where a particular RNA as in FIG. 2 has N representing no base, the RNA is an RNA formed by hybridization of an RNA having the base sequence shown in SEQ ID NO: 1 with an RNA having the base sequence shown in SEQ ID NO: 3.
This also applies to other bases. The RNAs used in the present example were purchased from Hokkaido System Science Co., Ltd.
Firstly, X2S was mixed in a cacodylate buffer solution (sodium cacodylate: 10 mM, pH 7.0; NaCl: 100 mM) at 10 μM, so that an X2S solution was obtained. The X2S solution was irradiated with light having an absorption maximum of 371±3 nm, and a fluorescence intensity was then measured. The fluorescence intensity was measured with use of a device (product number: RF-5300PC) available from Shimadzu Corporation. For each type of the RNAs, the fluorescence intensity was measured after the RNA was mixed in the X2S solution at 30 μM.
FIGS. 3 and 4 compare the fluorescence intensities measured before and after the RNA was mixed. […] The horizontal axis represents the fluorescence wavelength, whereas the vertical axis represents the fluorescence intensity. FIG. 4 is an enlarged graph corresponding to the fluorescence intensity of 5 A.U. in FIG. 3 and its vicinity.
Binding between X1S and RNAs was evaluated by a method identical to the method described in Example 2, except that X1S was used instead of X2S. […]

[3] = system: RRE; test: Displacement assay using X2S; format: binding, HIV-1; details: for binding affinity with respect to RRE / change of fluorescence intensity on addition of test substance: X2S and RRE each 2 μM, test substance 0-4.0 μM; for change of fluorescence intensity on addition of test substance: 453 nm
Text: In this Example, X2S was used to measure a binding affinity between a test substance and RRE. As the test substance, Rev protein (supplied by Professor Takashi MORII, Graduates School of Energy Science, Kyoto University), aminoglycoside antibiotic neomycin (available from Sigma-Aldrich, product number; N-1876) (hereinafter, simply referred to as “neomycin”), and thrombin (available from Bachem, product number; AG H-8550) were used. […] The structure of Rev protein is shown in FIG. 9, and the amino acid sequence of Rev protein is shown in SEQ ID NO: 5. FIG. 9 is a view schematically illustrating the structure of Rev protein. Further, the structure of thrombin is shown in FIG. 10, and the amino acid sequence of thrombin is shown in SEQ ID NO: 6. FIG. 10 is a view schematically illustrating the structure of thrombin.
Firstly, in the same manner as in Example 3, X2S and RRE were dissolved in a cacodylate buffer solution (sodium cacodylate: 10 mM, pH 7.0; NaCl: 100 mM) each at 2 μM. Thus, an X2S-RRE solution was prepared.
To the X2S-RRE solution, Rev protein was added in steps at 0 μM, 0.4 μM, 0.8 μM, 1.2 μM, 1.6 μM, 2.0 μM, 2.4 μM, 2.8 μM, 3.2 μM, 3.6 μM, and 4.0 μM. Further, a fluorescence intensity was measured at each concentration. Similarly, to the X2S-RRE solution, neomycin was added in steps at 0 μM, 0.4 μM, 0.8 μM, 1.2 μM, 1.6 μM, 2.0 μM, 2.4 μM, 2.8 μM, 3.2 μM, 3.6 μM, and 4.0 μM. Further, a fluorescence intensity was measured at each concentration. Similarly, to the X2S-RRE solution, thrombin was added in steps at 0 μM, 0.4 μM, 0.8 μM, 1.2 μM, 1.6 μM, 2.0 μM, 2.4 μM, 2.8 μM, 3.2 μM, 3.6 μM, and 4.0 μM. Further, a fluorescence intensity was measured at each concentration. The fluorescence intensities were measured in the same manner as that described in Example 2.
FIG. 11 is a view illustrating a result of the measurement of a binding affinity between Rev protein and RRE; FIG. 12 is a view illustrating a result of the measurement of a binding affinity between neomycin and RRE; and FIG. 13 is a view illustrating a result of the measurement of a binding affinity between thrombin and RRE. In each of FIGS. 11 to 13, the horizontal axis represents the fluorescence wavelength, whereas the vertical axis represents the fluorescence intensity. […] Furthermore, along the direction of the arrow extending from the curved line at the bottom, the curved lines are arranged in order of increasing amount of the test substance which was added.
FIG. 14 is a view plotting the fluorescence intensities at a fluorescence wavelength of 453 nm shown in the results illustrated in FIGS. 11 to 13. The horizontal axis represents the concentration of each test substance, whereas the vertical axis represents the fluorescence intensity. In FIG. 14, the circle marks represent the result obtained in the case involving use of Rev protein, the square marks represent the result obtained in the case involving use of neomycin, and the triangle marks represent the result obtained in the case involving use of thrombin.
A displacement assay using X2S was performed in the same manner as that described in Example 5, except that, in this Example, fluorescence was measured also when Rev protein was added at concentrations of 4.4 μM and 4.8 μM.
FIG. 16 is a view illustrating the result of the displacement assay using X2S. The horizontal axis represents the fluorescence wavelength, whereas the vertical axis represents the fluorescence intensity.

| Compound | fluorescence intensity in displacement assay ([1]; Rev protein 0-4.0 μM) | recovery rate of the fluorescence intensity ([1]; Rev protein 0-4.0 μM) | binding affinity with respect to RRE [3] | change of fluorescence intensity on addition of test substance [3] | also measured |
| --- | --- | --- | --- | --- | --- |
| NCCOc1ccc2c(=O)c3ccc(OCCN)cc3oc2c1 [3,6-X2S(2), 3,6-bis(2-aminoethoxy)xanthen-9-one] | low | almost equal to that of X2S | – | – | – |
| NCCOc1ccc2oc3ccccc3c(=O)c2c1 [X1S, 2-(2-aminoethoxy)xanthen-9-one] | – | – | – | – | binding to RNAs ([2]; 30 μM RNA (A, U, C, G bulge or no bulge), cacodylate buffer pH 7.0, NaCl 100 mM): binds to RNAs regardless of whether the bulge structure is present; detected decrease in the fluorescence intensity on mixing RNA ([2]; 30 μM RNA, compared with X2S): small as compared to the case of X2S |
| CC(N)COc1ccc2oc3ccc(OCC(C)N)cc3c(=O)c2c1 (stereo not shown) [X2S(2-Me), 2,7-bis(2-methyl-2-aminoethoxy)xanthen-9-one] | lower than that of X2S | highest | – | – | – |
| Rev protein: Rev protein, SEQ ID NO: 5, known to bind to RRE; test substance (TRQARRNRRRRWRERQRAAAAR; Human immunodeficiency virus type 1) | – | – | significantly high binding affinity | increased the fluorescence intensity | fluorescence intensity recovered ([3]; X2S-RRE solution, FIG. 14, 453 nm): approximately 80%; change of fluorescence intensity on addition of Rev protein ([1]; 1-Pyrenemethanamide, hydrochloride and RRE each 2 μM, excitation 340 nm): increased the fluorescence intensity; binding affinity of Rev protein with respect to RRE ([1]; measured with X2S, X2S(3), X2S(4), X2S(5), X2S(2-Me), 3,6-X2S(2), each 2 μM with RRE): significantly high binding affinity; change of fluorescence intensity on addition of Rev protein ([1]; xanthone compounds and RRE each 2 μM, Rev protein 0-4.0 μM): increased the fluorescence intensity |
| neomycin [reference compound] | – | – | lower binding affinity with respect to RRE compared with Rev protein | slightly increased the fluorescence intensity | – |
| thrombin | – | – | does not bind to RRE | hardly increased the fluorescence intensity | – |
